Results: ChEMBL document CHEMBL3608207, “Synthesis, characterization, evaluation and molecular dynamics studies of 5, 6-diphenyl-1,2,4-triazin-3(2H)-one derivatives bearing 5-substituted 1,3,4-oxadiazole as potential anti-inflammatory and analgesic agents” (Eur J Med Chem, 2015)

Experiments:
[1] = system: Rattus norvegicus; experiment: Gastro-intestinal toxicity in rat Freund's adjuvant induced arthritis model of chronic inflammation assessed as ulcer index at equimolar oral dose relative to 10 mg/kg, po indomethacin dosed after 14 days from day of adjuvant injection until day 21 and measured on day 21; type: organism-based; details: in vivo, 336 h
[2] = system: Rattus norvegicus; experiment: Anti-inflammatory activity in rat model of acute inflammation assessed as inhibition of carrageenan-induced paw oedema dosed at equimolar oral dose relative to 10 mg/kg, po indomethacin dosed 1 hr before carrageenan injection and measured 1 hr after carrageenan injection; type: functional
[3] = system: Rattus norvegicus; experiment: Anti-inflammatory activity in rat model of acute inflammation assessed as inhibition of carrageenan-induced paw oedema dosed at equimolar oral dose relative to 10 mg/kg, po indomethacin dosed 1 hr before carrageenan injection and measured 3 hrs after carrageenan injection; type: functional
[4] = Octanol/water partition coefficient, log P of the compound by shake flask method; type: physicochemical
[5] = system: Mus musculus; experiment: Analgesic activity in Swiss albino mouse assessed as reduction in formalin-induced paw licking by measuring time spent on licking during phase-2 at equimolar oral dose relative to 10 mg/kg, po indomethacin dosed 1 hr before formalin challenge and measured 30 mins after formalin injection; type: functional
[6] = system: Rattus norvegicus; experiment: Toxicity in healthy albino rat assessed as induction of tremors up to 500 mg/kg, po; type: organism-based; details: in vivo
[7] = system: Rattus norvegicus; experiment: Hepato-toxicity in rat Freund's adjuvant induced arthritis model of chronic inflammation assessed as assessed as SGPT level at equimolar oral dose relative to 10 mg/kg, po indomethacin dosed after 14 days from day of adjuvant injection until day 21 and measured on day 21 (reference value: 34.23 +/- 2.5 U/mL); type: organism-based; details: in vivo, 336 h
[8] = system: Rattus norvegicus; experiment: Anti-inflammatory activity in rat model of sub-chronic inflammation assessed as inhibition of cotton pellet-induced granuloma by measuring weight of granulation dosed once daily at equimolar oral dose relative to 10 mg/kg, po indomethacin for seven consecutive days from day of cotton pellet insertion (94.13 +/- 8.1 mg); type: functional
[9] = system: Rattus norvegicus; experiment: Anti-inflammatory activity in rat Freund's adjuvant induced arthritis model of chronic inflammation assessed as inhibition of right hind paw swelling at equimolar oral dose relative to 10 mg/kg, po indomethacin dosed after 14 days from day of adjuvant injection until day 21 and measured on day 12; type: functional
[10] = system: Rattus norvegicus; experiment: Anti-inflammatory activity in rat Freund's adjuvant induced arthritis model of chronic inflammation assessed as inhibition of right hind paw swelling at equimolar oral dose relative to 10 mg/kg, po indomethacin dosed after 14 days from day of adjuvant injection until day 21 and measured on day 18; type: functional
[11] = system: Rattus norvegicus; experiment: Anti-inflammatory activity in rat model of acute inflammation assessed as inhibition of carrageenan-induced paw oedema dosed at equimolar oral dose relative to 10 mg/kg, po indomethacin dosed 1 hr before carrageenan injection and measured 2 hrs after carrageenan injection; type: functional
[12] = system: Rattus norvegicus; experiment: Toxicity in healthy albino rat assessed as induction of sleep up to 500 mg/kg, po; type: organism-based; details: in vivo
[13] = system: Rattus norvegicus; experiment: Hepato-toxicity in rat Freund's adjuvant induced arthritis model of chronic inflammation assessed as assessed as SGOT level at equimolar oral dose relative to 10 mg/kg, po indomethacin dosed after 14 days from day of adjuvant injection until day 21 and measured on day 21 (reference value: 92.48 +/- 7.8 U/mL); type: organism-based; details: in vivo, 336 h
[14] = system: Rattus norvegicus; experiment: Toxicity in healthy albino rat assessed as induction of diarrhoea up to 500 mg/kg, po; type: organism-based; details: in vivo
[15] = system: Rattus norvegicus; experiment: Toxicity in healthy albino rat assessed as induction of lethargy up to 500 mg/kg, po; type: organism-based; details: in vivo
[16] = system: Mus musculus; experiment: Analgesic activity in Swiss albino mouse assessed as reduction in number of writhing episodes at equimolar oral dose relative to 10 mg/kg, po indomethacin measured 30 mins following acetic acid injection; type: functional
[17] = system: Rattus norvegicus; experiment: Renal toxicity in rat Freund's adjuvant induced arthritis model of chronic inflammation assessed as assessed as blood urea nitrogen level at equimolar oral dose relative to 10 mg/kg, po indomethacin dosed after 14 days from day of adjuvant injection until day 21 and measured on day 21 (reference value: 23.48 +/- 1.8 mg/dL); type: organism-based; details: in vivo, 336 h
[18] = system: Rattus norvegicus; experiment: Renal toxicity in rat Freund's adjuvant induced arthritis model of chronic inflammation assessed as assessed as total protein level at equimolar oral dose relative to 10 mg/kg, po indomethacin dosed after 14 days from day of adjuvant injection until day 21 and measured on day 21 (reference value: 1.78 +/- 0.11 g/dL); type: organism-based; details: in vivo, 336 h
[19] = system: Rattus norvegicus; experiment: Anti-inflammatory activity in rat Freund's adjuvant induced arthritis model of chronic inflammation assessed as inhibition of right hind paw swelling at equimolar oral dose relative to 10 mg/kg, po indomethacin dosed after 14 days from day of adjuvant injection until day 21 and measured on day 15; type: functional
[20] = In-vitro anti-inflammatory activity assessed as inhibition of denaturation of bovine serum albumin at equimolar dose relative to 10 mg indomethacin; type: functional
[21] = system: Rattus norvegicus; experiment: Anti-inflammatory activity in rat model of acute inflammation assessed as inhibition of carrageenan-induced paw oedema dosed at equimolar oral dose relative to 10 mg/kg, po indomethacin dosed 1 hr before carrageenan injection and measured 5 hrs after carrageenan injection relative to 10 mg/kg, po indomethacin; type: functional
[22] = system: Rattus norvegicus; experiment: Anti-inflammatory activity in rat assessed as inhibition of arachidonic acid-induced paw edema dosed at equimolar oral dose relative to 10 mg/kg, po indomethacin dosed 30 mins before arachidonic acid injection and measured 1 hr after arachidonic acid injection; type: functional
[23] = system: Rattus norvegicus; experiment: Anti-inflammatory activity in rat model of acute inflammation assessed as inhibition of carrageenan-induced paw oedema dosed at equimolar oral dose relative to 10 mg/kg, po indomethacin dosed 1 hr before carrageenan injection and measured 6 hrs after carrageenan injection; type: functional
[24] = system: Rattus norvegicus; experiment: Toxicity in healthy albino rat assessed as induction of coma up to 500 mg/kg, po; type: organism-based; details: in vivo
[25] = system: Rattus norvegicus; experiment: Toxicity in healthy albino rat assessed as induction of convulsion up to 500 mg/kg, po; type: organism-based; details: in vivo
[26] = system: Rattus norvegicus; experiment: Hepato-toxicity in rat Freund's adjuvant induced arthritis model of chronic inflammation assessed as assessed as alkaline phosphatase level at equimolar oral dose relative to 10 mg/kg, po indomethacin dosed after 14 days from day of adjuvant injection until day 21 and measured on day 21 (reference value: 17.82 +/- 1.2 U); type: organism-based; details: in vivo, 336 h
[27] = system: Rattus norvegicus; experiment: Renal toxicity in rat Freund's adjuvant induced arthritis model of chronic inflammation assessed as assessed as total albumin level at equimolar oral dose relative to 10 mg/kg, po indomethacin dosed after 14 days from day of adjuvant injection until day 21 and measured on day 21 (reference value: 1.77 +/- 0.12 g/dL); type: organism-based; details: in vivo, 336 h
[28] = system: Rattus norvegicus; experiment: Anti-inflammatory activity in rat Freund's adjuvant induced arthritis model of chronic inflammation assessed as inhibition of right hind paw swelling at equimolar oral dose relative to 10 mg/kg, po indomethacin dosed after 14 days from day of adjuvant injection until day 21 and measured on day 21; type: functional
[29] = system: Mus musculus; experiment: Analgesic activity in Swiss albino mouse assessed as reduction in formalin-induced paw licking by measuring time spent on licking during phase-1 at equimolar oral dose relative to 10 mg/kg, po indomethacin dosed 1 hr before formalin challenge and measured 30 mins after formalin injection; type: functional
[30] = system: Rattus norvegicus; experiment: Anti-inflammatory activity in rat Freund's adjuvant induced arthritis model of chronic inflammation assessed as inhibition of right hind paw swelling at equimolar oral dose relative to 10 mg/kg, po indomethacin dosed after 14 days from day of adjuvant injection until day 21 and measured on day 6; type: functional

SMILES	UI [1]	inhibition (INH) [2] [%]	inhibition (INH) [3] [%]	logP [4]	inhibition (INH) [5] [%]	Activity [6]	Activity [7] [U/ml]	Activity [8] [mg]	inhibition (INH) [9] [%]	inhibition (INH) [10] [%]	inhibition (INH) [11] [%]	Activity [12]	Activity [13] [U/ml]	Activity [14]	Activity [15]	inhibition (INH) [16] [%]	Activity [17] [mg/dL]	Activity [18] [g/dL]	inhibition (INH) [19] [%]	inhibition [20] [%]	other results
O=c1nc(-c2ccccc2)c(-c2ccccc2)nn1Cc1nnc(-c2ccc(O)cc2O)o1	10	24.71	53.27	3.46	75.21	Non-toxic	39.67	56.11	43.97	52.44	44.47	Non-toxic	99.35	Non-toxic	Non-toxic	72.4	38.67	1.88	49.82	80.8	inhibition (INH) [21]: 94.3%; inhibition (INH) [22]: 19.19%; inhibition (INH) [23]: 57.56%; Activity [24]: Non-toxic; Activity [25]: Non-toxic; Activity [26]: 19.56 U; Activity [27]: 1.82 g/dL; inhibition (INH) [28]: 54.25%; inhibition (INH) [29]: 10.73%; inhibition (INH) [30]: 37.61%
Nc1ccc(-c2nnc(Cn3nc(-c4ccccc4)c(-c4ccccc4)nc3=O)o2)cc1	12	24.02	51.89	3.72	74.57	Non-toxic	39.11	56.29	45.8	49.23	41.76	Non-toxic	98.21	Non-toxic	Non-toxic	71.85	33.85	1.86	47.9	80.3	inhibition (INH) [21]: 93.92%; inhibition (INH) [22]: 16.45%; inhibition (INH) [23]: 55.96%; Activity [24]: Non-toxic; Activity [25]: Non-toxic; Activity [26]: 20.64 U; Activity [27]: 1.87 g/dL; inhibition (INH) [28]: 52.21%; inhibition (INH) [29]: 12.45%; inhibition (INH) [30]: 36.5%
O=c1nc(-c2ccccc2)c(-c2ccccc2)nn1Cc1nnc(-c2ccc([N+](=O)[O-])cc2)o1	16	19.98	49.6	3.71	78.04	Non-toxic	45.28	58.07	41.78	45.9	41.42	Non-toxic	102.38	Non-toxic	Non-toxic	74.84	39.24	1.84	43.82	78.4	inhibition (INH) [21]: 89.33%; inhibition (INH) [22]: 12.26%; inhibition (INH) [23]: 52.27%; Activity [24]: Non-toxic; Activity [25]: Non-toxic; Activity [26]: 19.92 U; Activity [27]: 1.83 g/dL; inhibition (INH) [28]: 49.7%; inhibition (INH) [29]: 13.68%; inhibition (INH) [30]: 36.13%
O=c1nc(-c2ccccc2)c(-c2ccccc2)nn1Cc1nnc(-c2ccc(Cl)cc2)o1	18	22.98	51.32	3.91	75.85	Non-toxic	42.45	57.8	43.36	48.87	39.28	Non-toxic	107.18	Non-toxic	Non-toxic	73.26	42.28	1.91	45.86	78.2	inhibition (INH) [21]: 92.02%; inhibition (INH) [22]: 17.58%; inhibition (INH) [23]: 55.47%; Activity [24]: Non-toxic; Activity [25]: Non-toxic; Activity [26]: 20.28 U; Activity [27]: 1.8 g/dL; inhibition (INH) [28]: 51.98%; inhibition (INH) [29]: 12.11%; inhibition (INH) [30]: 35.28%
